pIC50: −log10 of the molar value.
Columns and labels:
HCT-8 = assay: Reduction of tumor cell growth to 50% in Fostriecin analogues in HCT-8 colon cancer cell lines; type: functional; details: Homo sapiens
L1210 = assay: Reduction of tumor cell growth to 50% in Fostriecin analogues in L1210 Leukemia cell lines; type: functional; details: Mus musculus
[1] = Exogenous inhibition concentration of Serine/threonine protein phosphatase 2A (PP2A)
[2] = Exogenous inhibition of Serine/threonine protein phosphatase 1 (PP1); set-up: species or system Homo sapiens
[3] = Exogenous inhibition concentration of Serine/threonine protein phosphatase 2B (PP2B)
Jurkat [4] = assay: Inhibition of production of beta-galactosidase IL-2 RGA in Jurkat cells; type: functional, cell-based; details: Homo sapiens
[5] = Inhibition of growth after 72 hr continuous exposure to test compounds in Osteosarcoma 143B tumor cell lines; type: functional; details: Homo sapiens
[6] = Inhibition of growth after 72 hr continuous exposure to test compounds in Ovarian ADDP tumor cell lines; type: functional
[7] = Inhibition of growth after 72 hr continuous exposure to test compounds in Colon HCT 116 tumor cell lines; type: functional; details: Homo sapiens, HCT-116, 72 h
Jurkat [8] = assay: Inhibition of production of beta-galactosidase thymidine kinase RGA in Jurkat cells; type: functional, cell-based; details: Homo sapiens
[9] = Inhibition of growth after 72 hr continuous exposure to test compounds in Ovarian A2780 tumor cell lines; type: functional; details: A2780, 72 h
[10] = Inhibition of growth after 72 hr continuous exposure to test compounds in colon HT-29 tumor cell lines; type: functional; details: Homo sapiens, HT-29, 72 h
[11] = Exogenous inhibition concentration of Serine/threonine protein phosphatase 2C (PP2C); NI means no inhibition.
[12] = Exogenous inhibition concentration of Serine/threonine protein phosphatase 2C ([…])
[13] = Inhibition of microcystin analogues to catalytic subunits of Serine/threonine protein phosphatase 1C
[14] = target: Serine/threonine-protein phosphatase PP1-gamma catalytic subunit (Homo sapiens, UniProt P36873, E275R); assay: Inhibition of Serine/threonine protein phosphatase 1 (PP1) mutants by natural toxins in E275R
Chain of Serine/threonine-protein phosphatase PP1-gamma catalytic subunit (Homo sapiens, UniProt P36873, E275R) (P36873 2-323 E275R limits assumed): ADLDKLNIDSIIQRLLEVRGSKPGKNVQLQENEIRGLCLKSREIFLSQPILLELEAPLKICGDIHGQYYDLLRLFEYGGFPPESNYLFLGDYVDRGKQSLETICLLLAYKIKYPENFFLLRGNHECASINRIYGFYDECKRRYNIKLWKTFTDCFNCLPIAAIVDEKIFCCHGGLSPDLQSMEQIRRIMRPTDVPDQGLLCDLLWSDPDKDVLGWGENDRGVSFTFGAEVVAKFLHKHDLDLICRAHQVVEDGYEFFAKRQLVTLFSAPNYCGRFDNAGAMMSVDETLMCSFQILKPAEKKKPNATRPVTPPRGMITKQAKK

[15] = target: Serine/threonine-protein phosphatase PP1-gamma catalytic subunit (Homo sapiens, UniProt P36873, Y272F); assay: Inhibition of Serine/threonine protein phosphatase 1 (PP1) mutants by natural toxins in Y272F
Chain of Serine/threonine-protein phosphatase PP1-gamma catalytic subunit (Homo sapiens, UniProt P36873, Y272F) (P36873 2-323 Y272F limits assumed): as the sequence (P36873 2-323 E275R limits assumed) above, with Y271F, R274E counted along it

[16] = target: Serine/threonine-protein phosphatase PP1-gamma catalytic subunit (Homo sapiens, UniProt P36873, D220V); assay: Inhibition of Serine/threonine protein phosphatase 1 (PP1) mutants by natural toxins in D220V
Chain of Serine/threonine-protein phosphatase PP1-gamma catalytic subunit (Homo sapiens, UniProt P36873, D220V) (P36873 2-323 D220V limits assumed): as the sequence (P36873 2-323 E275R limits assumed) above, with D219V, R274E counted along it

[17] = target: Serine/threonine-protein phosphatase PP1-gamma catalytic subunit (Homo sapiens, UniProt P36873, H248N); assay: Inhibition of Serine/threonine protein phosphatase 1 (PP1) mutants by natural toxins in H248N
Chain of Serine/threonine-protein phosphatase PP1-gamma catalytic subunit (Homo sapiens, UniProt P36873, H248N) (P36873 2-323 H248N limits assumed): as the sequence (P36873 2-323 E275R limits assumed) above, with H247N, R274E counted along it

[18] = Exogenous inhibition concentration of Serine/threonine protein phosphatase 5 (PP5)
[19] = target: Serine/threonine-protein phosphatase PP1-gamma catalytic subunit (Homo sapiens, UniProt P36873, R96A); assay: Inhibition of Serine/threonine protein phosphatase 1 (PP1) mutants by natural toxins in R96A
Chain of Serine/threonine-protein phosphatase PP1-gamma catalytic subunit (Homo sapiens, UniProt P36873, R96A) (P36873 2-323 R96A limits assumed): as the sequence (P36873 2-323 E275R limits assumed) above, with R95A, R274E counted along it

[20] = target: Serine/threonine-protein phosphatase PP1-gamma catalytic subunit (Homo sapiens, UniProt P36873); assay: Inhibition of Serine/threonine protein phosphatase 1 (PP1) mutants by natural toxins in wild type
Chain of Serine/threonine-protein phosphatase PP1-gamma catalytic subunit (Homo sapiens, UniProt P36873) (P36873 2-323 limits assumed, stated change not applied): as the sequence (P36873 2-323 E275R limits assumed) above, with R274E counted along it

[21] = target: Serine/threonine-protein phosphatase PP1-gamma catalytic subunit (Homo sapiens, UniProt P36873, C127S); assay: Inhibition of Serine/threonine protein phosphatase 1 (PP1) mutants by natural toxins in C127S
Chain of Serine/threonine-protein phosphatase PP1-gamma catalytic subunit (Homo sapiens, UniProt P36873, C127S) (P36873 2-323 C127S limits assumed): as the sequence (P36873 2-323 E275R limits assumed) above, with C126S, R274E counted along it

[22] = target: Serine/threonine-protein phosphatase PP1-gamma catalytic subunit (Homo sapiens, UniProt P36873, R221S); assay: Inhibition of Serine/threonine protein phosphatase 1 (PP1) mutants by natural toxins in R221S
Chain of Serine/threonine-protein phosphatase PP1-gamma catalytic subunit (Homo sapiens, UniProt P36873, R221S) (P36873 2-323 R221S limits assumed): as the sequence (P36873 2-323 E275R limits assumed) above, with R220S, R274E counted along it

[23] = target: Serine/threonine-protein phosphatase PP1-gamma catalytic subunit (Homo sapiens, UniProt P36873, N124D); assay: Inhibition of Serine/threonine protein phosphatase 1 (PP1) mutants by natural toxins in N124D
Chain of Serine/threonine-protein phosphatase PP1-gamma catalytic subunit (Homo sapiens, UniProt P36873, N124D) (P36873 2-323 N124D limits assumed): as the sequence (P36873 2-323 E275R limits assumed) above, with N123D, R274E counted along it

[24] = target: Serine/threonine-protein phosphatase PP1-gamma catalytic subunit (Homo sapiens, UniProt P36873, D208A); assay: Inhibition of Serine/threonine protein phosphatase 1 (PP1) mutants by natural toxins in D208A
Chain of Serine/threonine-protein phosphatase PP1-gamma catalytic subunit (Homo sapiens, UniProt P36873, D208A) (P36873 2-323 D208A limits assumed): as the sequence (P36873 2-323 E275R limits assumed) above, with D207A, R274E counted along it

Jurkat [25] = assay: Inhibition of production of IL-2 secretion in Jurkat cells; type: functional, cell-based; details: Homo sapiens

C[C@@](O)(/C=C/[C@@H]1OC(=O)C=CC1O)[C@@H](C[C@@H](O)\C=C/C=C\C=C\CO)OP(=O)(O)O (stereo not given in full)
GI50 (HCT-8): 4.2 µM
GI50 (L1210): 0.83 µM

CC(=O)OC(C)(C)[C@H]1CC[C@](C)([C@@H](O)CC[C@](C)(O)[C@H]2CC[C@H]3O[C@@H]([C@]4(C)CC[C@@H](Br)C(C)(C)O4)CC[C@]3(C)O2)O1
pIC50 [1]: 5.40
pIC50 [2]: < 3.00
pIC50 [3]: < 2.00

C=CC[C@@H]1/C=C(\C)C[C@H](C)C[C@H](OC)[C@H]2O[C@@](O)(C(=O)C(=O)N3CCCC[C@H]3C(=O)O[C@H](/C(C)=C/[C@@H]3CC[C@@H](O)[C@H](OC)C3)[C@H](C)[C@@H](O)CC1=O)[C@H](C)C[C@@H]2OC [TACROLIMUS ANHYDROUS]
pIC50 [3]: 9.30

C[C@@](O)(/C=C/COC(=O)/C=C\CO)[C@@H](C[C@@H](O)\C=C/C=C\C=C\CO)OP(=O)(O)O
GI50 (HCT-8): 56 µM
GI50 (L1210): > 1 µM

C/C=C/C=C\C=C/[C@H](O)C[C@@H](OP(=O)(O)O)[C@](C)(O)/C=C/[C@H]1CC=CC(=O)O1
GI50 (HCT-8): 1.5 µM
GI50 (L1210): 0.22 µM

O=C1OC(=O)C2C3CCC(O3)C12 (stereo not given)
pIC50 (Jurkat [4]): < 4.66
GI50 [5]: 43 µM
GI50 [6]: 47 µM
GI50 [7]: 24 µM
pIC50 (Jurkat [8]): 4.00
GI50 [9]: 50 µM
GI50 [10]: 33 µM

CO[C@H]([C@H](O)CC(=O)[C@@H](C)[C@@H](O)CC[C@@H](C)[C@@H]1O[C@]2(CC[C@@H](C)[C@H](CC[C@H](C)C(C)=O)O2)CC[C@@H]1C)[C@H](OC(=O)C[C@@H](O)C1=C(C)C(=O)OC1=O)C(C)C [TAUTOMYCIN]
pIC50 [1]: 9.15
pIC50 [2]: 9.15
IC50 [11]: no inhibition
pIC50 [12]: 1.15

CCCOC(=O)C1C(C(=O)O)C2CC[C@H]1O2 (stereo not given in full)
GI50 [5]: 450 µM
GI50 [6]: 315 µM
GI50 [7]: 75 µM
GI50 [9]: 110 µM
GI50 [10]: 15 µM

CC1(C(=O)O)C2CCC(O2)C1(C)C(=O)O (stereo not given)
pIC50 [1]: 7.30
pIC50 [2]: 6.22

CO[C@@H](Cc1ccccc1)[C@@H](C)/C=C(C)/C=C/[C@@H]1NC(=O)[C@H](C)NC(=O)[C@@H](C)[C@H](C(=O)O)CC(=O)[C@H](CC(C)C)NC(=O)[C@@H](C)NC(=O)CN(C)C(=O)CC[C@H](C(=O)O)NC(=O)[C@H]1C
pIC50 [13]: 9.10

Cn1cc2c3c1C(=O)C1=C(C3=NCC2)C2(C=C(Br)C(=O)C(Br)=C2)CCN1 [DISCORHABDIN]
pIC50 [3]: 5.94

COC[C@@H]([C@H](O)[C@H](O)C(=O)NCC[C@H](C)c1nc(/C=C/C[C@@H]2O[C@]3(C[C@@H](O)[C@@H]2C)O[C@H]([C@H](C[C@H](O)[C@H](C)[C@H](O)[C@H](C)/C=C(C)/C(C)=C/C=C/C(C)=C\C#N)OC)[C@H](OP(=O)(O)O)C3(C)C)co1)N(C)C [CALYCULIN A]
pIC50 [14]: 9.40
pIC50 [15]: 7.32
pIC50 [16]: 9.85
pIC50 [17]: < 6.30
pIC50 [18]: > 8.52
pIC50 [1]: 9.70
pIC50 [19]: 7.24
pIC50 [20]: 9.35
pIC50 [2]: 9.52
pIC50 [3]: < 2.00
IC50 [11]: no inhibition
pIC50 [21]: 8.66
pIC50 [22]: < 6.30
pIC50 [23]: < 6.30
pIC50 [24]: < 6.30

C/C=C/C[C@@H](C)[C@@H](O)[C@H]1C(=O)N[C@@H](CC)C(=O)N(C)CC(=O)N(C)[C@@H](CC(C)C)C(=O)N[C@@H](C(C)C)C(=O)N(C)[C@@H](CC(C)C)C(=O)N[C@@H](C)C(=O)N[C@H](C)C(=O)N(C)[C@@H](CC(C)C)C(=O)N(C)[C@@H](CC(C)C)C(=O)N(C)[C@@H](C(C)C)C(=O)N1C [CYCLOSPORINE]
pIC50 (Jurkat [4]): 8.10
pIC50 (Jurkat [25]): 8.15
pIC50 (Jurkat [8]): < 6.00

O=C(O)[C@@H]1[C@H](C(=O)O)[C@H]2CC[C@@H]1O2
pIC50 (Jurkat [4]): < 4.00
pIC50 (Jurkat [8]): 4.38

Source: ChEMBL document CHEMBL1135579, “Serine-threonine protein phosphatase inhibitors: development of potential therapeutic strategies” (J Med Chem, 2002)
